Columns and labels:
full-length LRRK2 = biological target: T1, full-length LRRK2 (Homo sapiens, UniProt Q5S007); assay: LRRKtide 32P-ATP peptide kinase assay (Protocol 1), full-length LRRK2; type: biochemical; details: 10 μM ATP, 200 μM lrrktide
T1 construct: full-length; made in house; host or cells: HEK293T
Description: (§1) The inhibition of LRRK2 and LRRK1 kinase was assessed using LRRK2 and LRRK1 recombinant protein in an in vitro peptide-based kinase assay.
(§2) LRRK2 protein is prepared as described in Daniëls et al. ((2011) J Neurochem 116, 304-315.). HEK293T cells are transfected with pCHMWS-3xflag-LRRK2 plasmid using polyethyleneimine and lysed after 48-72 hours in lysis buffer (Tris 20 mM pH 7.5, NaCl 150 mM, EDTA 1 mM, Triton 1%, Glycerol 10%, protease inhibitor cocktail). Lysates are cleared by centrifugation at 20,000 g for 10 minutes and incubated with normal mouse IgGs bound to agarose beads to remove proteins aspecifically binding to agarose or mouse IgGs. After removal of the IgG bead slurry, lysates are incubated for 3 to 18 hours with flagM2 bound to agarose beads. Beads are washed 4 times with wash buffer (Tris 25 mM pH 7.5, NaCl 400 mM, Triton 1%) and rinsed in kinase buffer (Tris-HCl 25 mM pH 7.5, 10 mM MgCl2, 2 mM dithiothreitol (DTT), 0.02% triton, 5 mM beta-glycerophosphate, 0.1 mM Na3VO4). Proteins are eluted in 5 volumes of kinase buffer containing 100 μg/ml 3xflag peptide. For assays using purified protein bound to affinity resin, affinity beads are resuspended in an equal volume of kinase buffer unless otherwise indicated. Purity and concentration are assessed by SDS-PAGE (3-8% tris-acetate SDS gel) and Coomassie Brilliant Blue staining or silver staining. Alternatively, a truncated LRRK2 enzyme (GST tagged LRRK2 of amino acids 970-2527) and a truncated LRRK2-G2019S (GST tagged LRRK2-G2019S of amino acids 970-2527) are used.
For Irrktide phosphorylation, recombinant LRRK2 is incubated with 6 μCi of 32P-ATP (3000 Ci/mmol), 200 μM Irrktide, 10 μM ATP and compound or solvent per 40 μl reaction for 30 minutes at 30° C. Compounds are tested at concentrations ranging from […]; the final amount of DMSO in the kinase reaction is 1%. Reactions are stopped and spotted to P81 phosphocellulose paper and washed 4×10 minutes in 75 mM phosphoric acid. Lrrktide phosphorylation levels are measured via autoradiography. Kinase assays are performed for each condition in triplicate. […]

[1] = biological target: T2, truncated LRRK2-G2019S (GST tagged LRRK2-G2019S of amino acids 970-2527) (Homo sapiens, UniProt Q5S007, G2019S); assay: LRRKtide 32P-ATP peptide kinase assay (Protocol 1), truncated LRRK2-G2019S; type: biochemical; details: 10 μM ATP, 200 μM lrrktide
T2 construct: GST tagged LRRK2-G2019S of amino acids 970-2527; GST
Description: as §1, §2
(§3) For Irrktide phosphorylation, recombinant LRRK2 is incubated with 6 μCi of 32P-ATP (3000 Ci/mmol), 200 μM Irrktide, 10 μM ATP and compound or solvent per 40 μl reaction for 30 minutes at 30° C. Compounds are tested at concentrations ranging from […]; the final amount of DMSO in the kinase reaction is 1%. Reactions are stopped and spotted to P81 phosphocellulose paper and washed 4×10 minutes in 75 mM phosphoric acid. Lrrktide phosphorylation levels are measured via autoradiography. Kinase assays are performed for each condition in triplicate.
(§4) LRRKtide phosphorylation levels are plotted vs. the log of the compound concentration and inhibition curves are fitted from which IC50 values are derived.

[2] = biological target: T3, truncated LRRK2 (GST tagged LRRK2 of amino acids 970-2527) (Homo sapiens, UniProt Q5S007); assay: LRRKtide 32P-ATP peptide kinase assay (Protocol 1), truncated LRRK2; type: biochemical; details: 10 μM ATP, 200 μM lrrktide
T3 construct: GST tagged LRRK2 of amino acids 970-2527; GST
Description: as §1, §2, §3, §4

T2 sequence (Q5S007 970-2527 G2019S): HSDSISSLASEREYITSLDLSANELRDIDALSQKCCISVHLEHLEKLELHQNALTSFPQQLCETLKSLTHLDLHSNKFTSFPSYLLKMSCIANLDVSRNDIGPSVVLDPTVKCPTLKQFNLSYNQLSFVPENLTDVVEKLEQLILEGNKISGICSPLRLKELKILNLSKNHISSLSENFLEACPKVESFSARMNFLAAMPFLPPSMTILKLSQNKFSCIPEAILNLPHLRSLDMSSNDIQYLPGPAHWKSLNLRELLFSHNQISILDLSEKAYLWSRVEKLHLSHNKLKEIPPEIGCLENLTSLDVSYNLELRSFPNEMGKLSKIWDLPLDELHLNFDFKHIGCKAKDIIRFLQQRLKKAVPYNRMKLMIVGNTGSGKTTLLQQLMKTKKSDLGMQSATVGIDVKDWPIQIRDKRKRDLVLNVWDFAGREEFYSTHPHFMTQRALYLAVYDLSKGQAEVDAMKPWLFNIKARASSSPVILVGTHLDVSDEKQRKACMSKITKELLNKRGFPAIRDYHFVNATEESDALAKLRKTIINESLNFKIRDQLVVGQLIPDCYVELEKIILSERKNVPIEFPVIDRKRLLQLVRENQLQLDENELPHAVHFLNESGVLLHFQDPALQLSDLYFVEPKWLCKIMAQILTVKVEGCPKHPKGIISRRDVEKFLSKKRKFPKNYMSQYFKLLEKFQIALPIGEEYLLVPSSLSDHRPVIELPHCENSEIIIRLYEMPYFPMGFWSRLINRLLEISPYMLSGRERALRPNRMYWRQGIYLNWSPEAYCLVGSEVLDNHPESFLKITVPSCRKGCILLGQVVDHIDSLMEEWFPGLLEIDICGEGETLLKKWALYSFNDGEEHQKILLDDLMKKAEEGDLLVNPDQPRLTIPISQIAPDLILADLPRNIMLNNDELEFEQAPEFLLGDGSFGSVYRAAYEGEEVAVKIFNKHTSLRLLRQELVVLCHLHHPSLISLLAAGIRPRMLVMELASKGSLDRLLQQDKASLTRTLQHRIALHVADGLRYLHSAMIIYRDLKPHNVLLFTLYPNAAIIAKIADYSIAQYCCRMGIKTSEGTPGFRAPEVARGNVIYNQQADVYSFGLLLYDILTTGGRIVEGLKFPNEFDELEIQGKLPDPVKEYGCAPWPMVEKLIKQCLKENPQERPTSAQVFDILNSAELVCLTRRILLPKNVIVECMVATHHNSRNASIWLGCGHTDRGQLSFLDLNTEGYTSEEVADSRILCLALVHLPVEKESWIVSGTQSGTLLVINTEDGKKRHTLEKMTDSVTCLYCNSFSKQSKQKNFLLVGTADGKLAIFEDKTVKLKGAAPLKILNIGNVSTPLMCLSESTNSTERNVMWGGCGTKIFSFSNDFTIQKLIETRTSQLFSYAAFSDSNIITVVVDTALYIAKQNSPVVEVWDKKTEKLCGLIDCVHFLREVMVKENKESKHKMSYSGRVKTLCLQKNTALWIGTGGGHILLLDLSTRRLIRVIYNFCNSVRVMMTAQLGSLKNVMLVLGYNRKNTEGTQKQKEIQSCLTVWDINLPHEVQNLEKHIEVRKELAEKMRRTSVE
T3 sequence (Q5S007 970-2527): as the sequence (Q5S007 970-2527 G2019S) above, with S1050G counted along it
T1 sequence (Q5S007 whole entry): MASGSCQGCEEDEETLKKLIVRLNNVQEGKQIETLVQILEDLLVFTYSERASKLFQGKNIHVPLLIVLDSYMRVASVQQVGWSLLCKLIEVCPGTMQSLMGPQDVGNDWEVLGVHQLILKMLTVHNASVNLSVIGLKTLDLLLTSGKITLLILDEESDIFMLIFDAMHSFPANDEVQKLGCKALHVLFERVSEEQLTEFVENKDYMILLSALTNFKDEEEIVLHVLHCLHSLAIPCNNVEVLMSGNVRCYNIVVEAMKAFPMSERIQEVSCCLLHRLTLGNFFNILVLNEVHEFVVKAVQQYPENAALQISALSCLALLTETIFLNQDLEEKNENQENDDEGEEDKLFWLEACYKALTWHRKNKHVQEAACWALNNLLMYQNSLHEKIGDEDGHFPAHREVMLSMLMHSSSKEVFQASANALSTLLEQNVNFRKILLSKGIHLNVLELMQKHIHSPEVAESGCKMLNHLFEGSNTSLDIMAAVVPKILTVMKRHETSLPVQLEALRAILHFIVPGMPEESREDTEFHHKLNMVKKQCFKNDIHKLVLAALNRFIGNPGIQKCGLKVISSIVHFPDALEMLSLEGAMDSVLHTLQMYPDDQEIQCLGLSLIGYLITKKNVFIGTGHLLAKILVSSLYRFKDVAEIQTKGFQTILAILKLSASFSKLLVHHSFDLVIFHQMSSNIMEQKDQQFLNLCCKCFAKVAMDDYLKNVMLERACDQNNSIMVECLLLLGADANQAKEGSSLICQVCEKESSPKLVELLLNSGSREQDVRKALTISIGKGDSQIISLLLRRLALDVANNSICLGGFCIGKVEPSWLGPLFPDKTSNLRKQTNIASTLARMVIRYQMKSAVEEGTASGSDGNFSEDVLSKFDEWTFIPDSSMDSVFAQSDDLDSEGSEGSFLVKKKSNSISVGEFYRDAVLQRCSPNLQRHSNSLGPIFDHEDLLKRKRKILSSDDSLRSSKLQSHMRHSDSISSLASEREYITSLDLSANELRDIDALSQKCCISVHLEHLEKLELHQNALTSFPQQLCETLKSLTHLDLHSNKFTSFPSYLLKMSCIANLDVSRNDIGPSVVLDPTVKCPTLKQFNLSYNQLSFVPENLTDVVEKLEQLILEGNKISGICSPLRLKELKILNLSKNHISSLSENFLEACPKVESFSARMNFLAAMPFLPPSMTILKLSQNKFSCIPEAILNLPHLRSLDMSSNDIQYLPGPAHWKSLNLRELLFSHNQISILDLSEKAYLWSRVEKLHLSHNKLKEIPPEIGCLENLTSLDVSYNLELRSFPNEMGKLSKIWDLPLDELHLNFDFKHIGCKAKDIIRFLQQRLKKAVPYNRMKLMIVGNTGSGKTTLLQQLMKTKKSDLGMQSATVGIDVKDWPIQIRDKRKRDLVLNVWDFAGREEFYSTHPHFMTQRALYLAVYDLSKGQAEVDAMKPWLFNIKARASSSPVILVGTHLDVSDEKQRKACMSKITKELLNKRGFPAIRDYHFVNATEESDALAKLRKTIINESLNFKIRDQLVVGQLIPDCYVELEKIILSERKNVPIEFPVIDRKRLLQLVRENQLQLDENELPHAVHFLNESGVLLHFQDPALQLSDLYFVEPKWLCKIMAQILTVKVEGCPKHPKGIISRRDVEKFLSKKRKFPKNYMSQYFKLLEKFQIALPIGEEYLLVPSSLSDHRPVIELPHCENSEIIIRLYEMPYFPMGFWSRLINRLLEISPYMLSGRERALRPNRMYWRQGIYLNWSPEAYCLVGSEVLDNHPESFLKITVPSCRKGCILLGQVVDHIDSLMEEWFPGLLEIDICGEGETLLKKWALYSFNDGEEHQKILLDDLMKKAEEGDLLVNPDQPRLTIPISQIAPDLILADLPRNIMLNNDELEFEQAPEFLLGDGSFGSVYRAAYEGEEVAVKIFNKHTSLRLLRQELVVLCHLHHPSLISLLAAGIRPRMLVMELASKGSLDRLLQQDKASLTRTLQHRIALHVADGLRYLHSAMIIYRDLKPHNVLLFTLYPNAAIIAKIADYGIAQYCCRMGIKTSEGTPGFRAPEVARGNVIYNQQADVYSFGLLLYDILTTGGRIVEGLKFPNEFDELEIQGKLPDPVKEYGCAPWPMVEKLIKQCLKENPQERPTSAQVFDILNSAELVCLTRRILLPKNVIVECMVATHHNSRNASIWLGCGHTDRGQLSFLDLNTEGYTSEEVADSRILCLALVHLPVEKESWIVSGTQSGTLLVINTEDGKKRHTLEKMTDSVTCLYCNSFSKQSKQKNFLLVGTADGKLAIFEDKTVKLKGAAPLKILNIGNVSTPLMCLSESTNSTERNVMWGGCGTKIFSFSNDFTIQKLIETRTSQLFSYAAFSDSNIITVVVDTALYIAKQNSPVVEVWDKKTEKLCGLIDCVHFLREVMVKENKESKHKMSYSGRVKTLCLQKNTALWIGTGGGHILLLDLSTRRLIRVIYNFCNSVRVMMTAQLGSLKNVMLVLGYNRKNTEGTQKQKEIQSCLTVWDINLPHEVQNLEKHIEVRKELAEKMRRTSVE

Row | IC50 (full-length LRRK2) [nM] | IC50 [1] [nM] | melting point [°C] | IC50 [2] [nM] | SMILES
1 | < 100 | 100 to 1000 | > 300 | 100 to 1000 | O=C1CCCOc2cccc(c2)-c2cnn3ccc(nc23)NCCN1 [Example 2]
2 | < 100 | < 100 | > 300 | < 100 | O=C1CCNc2ccn3ncc(c3n2)-c2cccc(c2)OCCN1 [Example 3]
